Reference: patent publication US12344598B2, “Bis(diazirine) derivatives as photo-crosslinker for treating corneal ectatic disorders” (Avedro, Inc., priority 2019, dated 2025)
Marks after values point to notes of the source that are not given here.

Tests used:
cornea [1] = experiment: Porcine Eye Corneal Flattening Assay; conditions: overall change in keratometry (Km) of central 3 mm zone; UVA 4 mm circle, 365 nm, 30 mW/cm^2, CW, 8.1 min, 15 J total dose, normal (21% O2) atmosphere, 37.0° C.
Experimental: Porcine whole globes in saline at 4° C. were warmed to room temperature. The corneas were then de-epithelialized with a dulled scalpel blade and the eyes placed into custom movable eye holders in a horizontal position with the cornea facing upward. The eye holders were then positioned inside an enclosed chamber that allows for the control of atmosphere, temperature and humidity (typically a water bath at 37.0° C.). IOP is maintained at a constant pressure by the insertion of a blood bank buffered saline line from an IV bag at a standard height inserted into each eye via a syringe needle. 5% Dextran T500 in blood bank buffered saline is dropped onto the surface of the cornea of each eye every 90 sec for 2 hours to allow the eyes to stabilize. […] The test eye is then orientated in a vertical position and the pre-treatment surface keratometry of the cornea measured using a Pentacam® HR device fine cornea 100 scan. […] After a further 1.5 hours during which the 5% dextran drops are resumed the eye is orientated back to the vertical position and the post-treatment surface keratometry of the cornea measured using a Pentacam® HR device fine cornea 100 scan as before. The difference map between the pre and post treatment corneal images is obtained and the overall change in keratometry (Km) of the central 3 mm zone recorded as a change in diopters. […]

cornea [2] = experiment: Porcine Eye Corneal Stiffening Assay; conditions: UVA 9 mm circle, 365 nm, 30 mW/cm^2, CW, 8.1 min, 15 J, 21% O2, 37.0° C., untreated cornea = 10.1
Experimental: Porcine whole globes in saline at 4° C. were warmed to room temperature. The eyes were either immediately placed into custom movable eye holders in a horizontal position with the cornea facing upward or were first de-epithelialized with a dulled scalpel blade before being placed in the holder. The eye holders were then positioned inside an enclosed chamber that allows for the control of atmosphere, temperature and humidity (typically a water bath at 37.0° C.). A solution of test compound held in place by a small rubber O-ring on the center of the cornea is then allowed to soak into the cornea surface of the test eye. After a set soaking time (typically 10 minutes) the O-ring is removed and any excess test solution washed away with saline. A specific pattern of UVA light at 365 nm is administered to the test eye cornea over a desired dosing period. A corneal flap of desired thickness (typically 200 μm is then excised from the eyes using a femtosecond laser (Zeimer, LDV1). The corneal flap is placed in saline at ambient temperature for 20 minutes and then mounted onto a biaxial extensiometer (CellScale Biotester5000, Waterloo, ON), using biorake attachments (5 tines spanning a width of 3.5 mm). The corneal flap is stretched at a constant rate of 4 μm/s in saline at 37° C. until sample failure. The maximum slope of the force vs distance curve is calculated and compared to that obtained from an untreated cornea.
The following notes provide further clarification regarding certain steps in the assay: • (1) A solution of the test compound (typically 0.22% w/v in saline) is held in place by a small rubber O-ring on the center of the cornea is then allowed to soak into the cornea surface of the test eye. After a set soaking time of 5-30 minutes (typically 10 minutes) the O-ring is removed and any excess test solution washed away with saline. • (2) A corneal flap of desired thickness and diameter (typically 200 μm thick by 8 mm diameter) is then excised from the eyes using a femtosecond laser (Zeimer, LDV1). The corneal flap is either placed in saline at ambient temperature for 20 minutes and then mounted in saline onto a biaxial extensiometer (CellScale Biotester5000, Waterloo, ON) or mounted directly onto the tester in 5% Dextran T500/saline. • (3) Biorake attachments (5 tines spanning a width of 3.5 mm) are used to hold the flap as it is stretched at 37° C. and a constant rate of 4 μm/s in both X (5 N load cell) and Y (10 N load cell) directions simultaneously. • (4) The maximum slope of the force vs distance curve corresponds to the stiffening value. It is compared to that obtained from an untreated cornea.

[3] = maximum slope of force vs distance curve of corneal flap
[4] = eyes were not de-epithelialized prior to treatment

SMILES | Refractive Change (D) (cornea [1]) | Max slope (cornea [2]; [3]) | Max slope (cornea [2]; [4])
CC1(CCNCC(=O)NCCC2(C)N=N2)N=N1 [Example 1] | −0.32 D | 11.28 | –
CC1(CCNCC(=O)N[C@@H](CC(=O)O)C(=O)NCCC2(C)N=N2)N=N1 [Example 17] | – | 10.13 | –
CC1(CCN(CCC2(C)N=N2)CC(=O)O)N=N1 [Example 13] | – | 12.38 | –
CC1(CCC(=O)N(CCC2(C)N=N2)[C@@H]2CCNC2)N=N1 [Example 23] | – | – | 10.68^#
CC1(CCNCCC(=O)N[C@@H](CCCCNC(=N)N)C(=O)NCCC2(C)N=N2)N=N1 [Example 10] | −0.64 D | – | 10.14^#
CC1(CCNCCC(=O)N[C@@H](CC(=O)O)C(=O)OCCC2(C)N=N2)N=N1 [Example 6] | – | – | 10.88^#
CC1(CCC(=O)N(CCC2(C)N=N2)CC(=O)O)N=N1 [Example 14] | – | 10.66 | 10.5
